Consider four compounds from article PMC12176259, “Bacterial transcriptional repressor NrdR – a flexible multifactorial nucleotide sensor” (The Febs Journal, 2025).

One may read the Kd as the equilibrium constant for the complex coming apart. Read a low Kd as higher affinity.

Assay [1] has as its target T1, E. coli NrdR (EcoNrdR) (Escherichia coli, UniProt P0A8D0).
T1 construct: full-length wild type, C-terminal His6 tag (pET30a(+)), E. coli BL21(DE3); tag not reported removed; co-purified nucleotides stripped for ITC (apo-NrdR); apo dimer, tetramer with ATP-dATP or ADP-dATP; SeMet version for 9FVR
Briefly: ITC, one set of sites. It counts as binding. An excerpt: ITC, one set of sites on E. coli NrdR (EcoNrdR)
Background: ITC needs no label: the signal is the heat of the interaction.

The target of assay [2] is T1, E. coli NrdR (EcoNrdR). As to the kind of experiment: X-ray crystal structure, […] Å. Format: binding. As to conditions: with dATP and Mg2+; inner site.

T1 sequence (P0A8D0 whole entry): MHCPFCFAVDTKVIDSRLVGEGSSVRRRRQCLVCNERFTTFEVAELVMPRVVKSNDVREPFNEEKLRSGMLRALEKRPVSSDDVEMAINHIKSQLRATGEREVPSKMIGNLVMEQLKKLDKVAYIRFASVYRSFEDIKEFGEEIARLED

On to `Nc1ncnc2c1ncn2[C@H]1C[C@H](O)[C@@H](COP(=O)(O)OP(=O)(O)OP(=O)(O)O)O1` [dATP], for which the Kd in assay [1] was determined as 610 ± 231 nM.

Take `Nc1ncnc2c1ncn2[C@@H]1O[C@H](COP(=O)(O)OP(=O)(O)OP(=O)(O)O)[C@@H](O)[C@H]1O` [ATP]: in assay [1], binding was put at a Kd of 346 ± 93 nM.

For `Nc1ncnc2c1ncn2[C@@H]1O[C@H](COP(=O)(O)OP(=O)(O)NP(=O)(O)O)[C@@H](O)[C@H]1O` [AMPPNP], the “X-ray crystal structure, 2.33 Å” value in assay [2] was “In complex with dATP and AMPPNP, EcoNrdR is a tetramer”.

`Nc1ncnc2c1ncn2[C@@H]1O[C@H](COP(=O)(O)OP(=O)(O)O)[C@@H](O)[C@H]1O` [ADP] gave a Kd in assay [1] of 343 ± 19 nM.
